Data on three molecules can be found in PMC7061341, “Detection of the in vitro modulation of Plasmodium falciparum Arf1 by Sec7 and ArfGAP domains using a colorimetric plate-based assay” (Scientific Reports, 2020).

The term IC50 denotes the point on the concentration scale where inhibition reaches its midpoint.

One assay addresses T1, PfArfGAP1 (Plasmodium falciparum, UniProt Q8I4Y5).
T1 construct: gene PF3D7_1244600; GAP domain, amino acids 1–161; with PfArf1 (NΔ17, GTP-loaded)
The assay can be described thus: plate-based GST-GGA3 GAT binding GAP assay; confirmed by tryptophan fluorescence. Format: biochemical.

For assay [1], the target named is ^NΔ17PfArf1 (His-tagged P. falciparum Arf1 minus the N-terminal 17 amino acids) (Plasmodium falciparum) (UniProt Q7KQL3).
The next assay has as its target T2, ARNO (Homo sapiens, UniProt Q99418).
T2 construct: gene CYTH2; Sec7 domain, amino acids 51–253; with Arf1 (NΔ17HsArf1 or NΔ17PfArf1, GDP-loaded)
The assay can be described thus: plate-based GST-GGA3 GAT binding nucleotide exchange assay, […] compound. Format: biochemical.

T2 sequence (Q99418 51-253): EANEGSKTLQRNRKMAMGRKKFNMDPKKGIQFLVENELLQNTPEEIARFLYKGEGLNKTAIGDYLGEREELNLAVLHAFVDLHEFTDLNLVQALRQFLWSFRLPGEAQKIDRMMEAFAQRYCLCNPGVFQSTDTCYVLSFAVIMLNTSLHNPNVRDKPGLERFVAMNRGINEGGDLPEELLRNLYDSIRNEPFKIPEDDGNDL
T2 sequence (P84077 18-181 partner): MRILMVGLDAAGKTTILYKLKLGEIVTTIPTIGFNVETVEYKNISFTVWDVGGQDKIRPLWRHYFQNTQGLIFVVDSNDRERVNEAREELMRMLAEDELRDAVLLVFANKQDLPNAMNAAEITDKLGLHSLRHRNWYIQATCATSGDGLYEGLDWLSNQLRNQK

With `CC1(C(=O)Nc2cccc3cccnc23)CCN1C(=O)CCC1CCCC1` (stereo not drawn) [Chem1099], on PfArfGAP1, the IC50 was 4.7 µM.

For “PfArfGAP1^GAP (putative GAP domain of P. falciparum ArfGAP1) (domain or fragment)”, in assay [1], the half-maximal GAP activity (EC50): deactivation of 1 µM ^NΔ17PfArf1-GTP by three-fold serial dilutions (0.5–0.002 µM) of the GAP domain, read by the GST-GGA3^GAT binding assay came to 0.021 µM.

For SecinH3, the “% inhibition at 50 μM” value on ARNO turned out to be 93.
